One block for each molecule: values may come before it.
System: 966289-007-R4-J1-PDC complex spheroid viability
Test: Anticancer human tumor 966289-007-R4-J1-PDC patient-derived pancreatic adenocarcinoma cell line growth inhibition [RAS]
Details: for IC50: curve of first compound; for viability, T/C: stronger effect = lower value
Summary of the method: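 Tumour cells grown as complex spheroids with HUVEC endothelial cells and mesenchymal stem cells, treated with RAS pathway inhibitor combinations. Each agent spans half-log steps from near clinical Cmax, or 10 microM where Cmax is unknown.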

[1] = second compound 0.0316 µM, first compound 0.0316 µM
[2] = second compound 0.0316 µM, first compound 0.1 µM
[3] = second compound 0.0316 µM, first compound 0.316 µM
[4] = second compound 0.0316 µM, first compound 1 µM
[5] = second compound 0.1 µM, first compound 0.0316 µM
[6] = second compound 0.1 µM, first compound 0.1 µM
[7] = second compound 0.1 µM, first compound 0.316 µM
[8] = second compound 0.1 µM, first compound 1 µM
[9] = second compound 0.316 µM, first compound 0.0316 µM
[10] = second compound 0.316 µM, first compound 0.1 µM
[11] = second compound 0.316 µM, first compound 0.316 µM
[12] = second compound 0.316 µM, first compound 1 µM
[13] = second compound 1 µM, first compound 0.0316 µM
[14] = second compound 1 µM, first compound 0.1 µM
[15] = second compound 1 µM, first compound 0.316 µM
[16] = second compound 1 µM, first compound 1 µM
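Further: spheroids exposed to agents for one week before readout.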
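Wherever viability, T/C is given: percent viability relative to DMSO vehicle control wells as 100%.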

IC50 (second compound 0.00316 µM): > 10 µM
IC50 (second compound 0.01 µM): > 10 µM
IC50 (second compound 0.0316 µM): > 10 µM
IC50 (second compound 0.1 µM): > 10 µM
IC50 (second compound 0.316 µM): > 10 µM
IC50 (second compound 1 µM): > 10 µM
Compound: CC(Nc1ccc2c(c1)OCCn1cc(N3C(=O)OCC3C(F)F)nc1-2)C(N)=O (configuration not stated) + C=CC(=O)N1CCN(c2nc(OCC3CCCN3C)nc3c(F)c(-c4nc(N)cc(C)c4C(F)(F)F)c(Cl)cc23)C(C)C1
viability, T/C (second compound 0.00316 µM, first compound 0.0316 µM): 96.2%
viability, T/C (second compound 0.00316 µM, first compound 0.1 µM): 103%
viability, T/C (second compound 0.00316 µM, first compound 0.316 µM): 96.3%
viability, T/C (second compound 0.00316 µM, first compound 1 µM): 96.4%
viability, T/C (second compound 0.00316 µM, first compound 3.16 µM): 101%
viability, T/C (second compound 0.00316 µM, first compound 10 µM): 86.1%
viability, T/C (second compound 0.01 µM, first compound 0.0316 µM): 89.8%
viability, T/C (second compound 0.01 µM, first compound 0.1 µM): 112%
viability, T/C (second compound 0.01 µM, first compound 0.316 µM): 115%
viability, T/C (second compound 0.01 µM, first compound 1 µM): 102%
viability, T/C (second compound 0.01 µM, first compound 3.16 µM): 97.4%
viability, T/C (second compound 0.01 µM, first compound 10 µM): 86.9%
viability, T/C [1]: 99.8%
viability, T/C [2]: 110%
viability, T/C [3]: 114%
viability, T/C [4]: 111%
viability, T/C (second compound 0.0316 µM, first compound 3.16 µM): 93.2%
viability, T/C (second compound 0.0316 µM, first compound 10 µM): 84.1%
viability, T/C [5]: 95.8%
viability, T/C [6]: 111%
viability, T/C [7]: 115%
viability, T/C [8]: 115%
viability, T/C (second compound 0.1 µM, first compound 3.16 µM): 88.3%
viability, T/C (second compound 0.1 µM, first compound 10 µM): 93.3%
viability, T/C [9]: 96.6%
viability, T/C [10]: 101%
viability, T/C [11]: 117%
viability, T/C [12]: 117%
viability, T/C (second compound 0.316 µM, first compound 3.16 µM): 103%
viability, T/C (second compound 0.316 µM, first compound 10 µM): 98.7%
viability, T/C [13]: 99.8%
viability, T/C [14]: 110%
viability, T/C [15]: 112%
viability, T/C [16]: 87.1%
viability, T/C (second compound 1 µM, first compound 3.16 µM): 96.5%
viability, T/C (second compound 1 µM, first compound 10 µM): 83.2%

Compound: CC1(C)CCC(Nc2ncc(C(F)(F)F)c(-c3c[nH]c4c(P(C)(C)=O)c(C#N)ccc34)n2)CN1 (configuration not stated)
viability, T/C (compound 0.03 µM): 15.1% [middle of 4 runs]
viability, T/C (compound 0.0949 µM): 10.5% [middle of 4 runs]
viability, T/C (compound 0.3 µM): 8.72% [middle of 4 runs]

IC50 (second compound 0.0316 µM): > 1 µM
IC50 (second compound 0.1 µM): > 1 µM
IC50 (second compound 0.316 µM): > 1 µM
IC50 (second compound 1 µM): > 1 µM
IC50 (second compound 3.16 µM): > 1 µM
IC50 (second compound 10 µM): > 1 µM
Compound: CCN1CCN(Cc2ccc(Nc3ncc(F)c(-c4cc(F)c5nc(C)n(C(C)C)c5c4)n3)nc2)CC1 + C#Cc1c(F)ccc2cc(O)cc(-c3ncc4c(N5CC6CCC(C5)N6)nc(OCC56CCCN5CC(F)C6)nc4c3F)c12
viability, T/C (second compound 0.0316 µM, first compound 0.00316 µM): 121%
viability, T/C (second compound 0.0316 µM, first compound 0.01 µM): 102%
viability, T/C [1]: 107%
viability, T/C [2]: 92.8%
viability, T/C [3]: 92.1%
viability, T/C [4]: 71.8%
viability, T/C (second compound 0.1 µM, first compound 0.00316 µM): 113%
viability, T/C (second compound 0.1 µM, first compound 0.01 µM): 108%
viability, T/C [5]: 102%
viability, T/C [6]: 82.7%
viability, T/C [7]: 92.8%
viability, T/C [8]: 71.1%
viability, T/C (second compound 0.316 µM, first compound 0.00316 µM): 114%
viability, T/C (second compound 0.316 µM, first compound 0.01 µM): 112%
viability, T/C [9]: 100%
viability, T/C [10]: 95.9%
viability, T/C [11]: 84.6%
viability, T/C [12]: 69.9%
viability, T/C (second compound 1 µM, first compound 0.00316 µM): 104%
viability, T/C (second compound 1 µM, first compound 0.01 µM): 103%
viability, T/C [13]: 116%
viability, T/C [14]: 103%
viability, T/C [15]: 79.4%
viability, T/C [16]: 81.7%
viability, T/C (second compound 3.16 µM, first compound 0.00316 µM): 108%
viability, T/C (second compound 3.16 µM, first compound 0.01 µM): 109%
viability, T/C (second compound 3.16 µM, first compound 0.0316 µM): 113%
viability, T/C (second compound 3.16 µM, first compound 0.1 µM): 93.3%
viability, T/C (second compound 3.16 µM, first compound 0.316 µM): 88.8%
viability, T/C (second compound 3.16 µM, first compound 1 µM): 77%
viability, T/C (second compound 10 µM, first compound 0.00316 µM): 108%
viability, T/C (second compound 10 µM, first compound 0.01 µM): 90.3%
viability, T/C (second compound 10 µM, first compound 0.0316 µM): 121%
viability, T/C (second compound 10 µM, first compound 0.1 µM): 89.2%
viability, T/C (second compound 10 µM, first compound 0.316 µM): 93.4%
viability, T/C (second compound 10 µM, first compound 1 µM): 66%

Source: PubChem BioAssay AID2060897 (Molecular Pharmacology Branch, DTP, NCI, 2025)
